Target: T1, Androgen receptor (Homo sapiens) (UniProt P10275)
T1 sequence (whole entry): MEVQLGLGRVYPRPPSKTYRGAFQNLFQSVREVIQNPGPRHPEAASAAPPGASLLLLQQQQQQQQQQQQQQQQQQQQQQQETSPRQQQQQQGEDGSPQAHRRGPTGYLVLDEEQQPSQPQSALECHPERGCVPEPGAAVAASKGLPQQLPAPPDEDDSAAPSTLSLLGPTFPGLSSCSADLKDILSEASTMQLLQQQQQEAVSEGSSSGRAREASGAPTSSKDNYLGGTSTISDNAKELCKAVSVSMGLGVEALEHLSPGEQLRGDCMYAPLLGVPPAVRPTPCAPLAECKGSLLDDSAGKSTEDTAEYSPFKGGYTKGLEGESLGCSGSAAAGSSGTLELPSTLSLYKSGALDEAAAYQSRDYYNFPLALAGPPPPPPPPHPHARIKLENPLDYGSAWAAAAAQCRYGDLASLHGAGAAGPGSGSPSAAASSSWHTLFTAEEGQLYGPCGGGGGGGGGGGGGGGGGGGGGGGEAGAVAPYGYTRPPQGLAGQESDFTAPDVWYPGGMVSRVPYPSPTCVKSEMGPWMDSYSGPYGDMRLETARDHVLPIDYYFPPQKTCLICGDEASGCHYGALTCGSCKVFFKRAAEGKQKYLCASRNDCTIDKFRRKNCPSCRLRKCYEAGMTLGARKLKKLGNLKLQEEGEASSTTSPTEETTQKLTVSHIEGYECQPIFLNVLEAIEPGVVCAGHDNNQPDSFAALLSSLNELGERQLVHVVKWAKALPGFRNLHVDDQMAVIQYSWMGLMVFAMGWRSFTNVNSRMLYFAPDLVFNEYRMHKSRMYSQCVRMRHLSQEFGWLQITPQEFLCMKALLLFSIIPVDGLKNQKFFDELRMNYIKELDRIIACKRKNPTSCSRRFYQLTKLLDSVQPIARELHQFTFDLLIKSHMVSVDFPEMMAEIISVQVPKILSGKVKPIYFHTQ
Conditions: CV-1
Description: Relative stimulatory activity compared to 5-alpha-DHT in CV-1 cells expressing androgen receptor

Compound	RSA
CC12CC[C@@H]3C4CCC(=O)CC4C[C@@H](I)[C@H]3[C@@H]1CC[C@]2(C)O (some centres not stated)	8
CC12CC[C@@H]3C4CCC(=O)CC4C[C@@H](I)[C@H]3[C@@H]1CCC2O (some centres not stated)	13

From ChEMBL document CHEMBL1132232, “7alpha-Iodo and 7alpha-fluoro steroids as androgen receptor-mediated imaging agents” (J Med Chem, 1999)
